In experiment [1] the target is T1, human full-length MKNK1 (Homo sapiens, UniProt Q9BUB5, T385D).
T1 construct: purchased Carna Biosciences 02-145; host or cells: insect cells (baculovirus expression system)
Description: MKNK1 kinase high ATP assay (TR-FRET-based). It is filed as biochemical. Conditions: ATP final conc. 2 mM, 15 min preincubation, 30 min reaction at 22° C. As for the experimental part: MKNK1 Kinase High ATP Assay
MKNK1-inhibitory activity at high ATP of compounds of the present invention after their preincubation with MKNK1 was quantified employing the TR-FRET-based MKNK1 high ATP assay as described in the following paragraphs.
A recombinant fusion protein of Glutathione-S-Transferase (GST, N-terminally) and human full-length MKNK1 (amino acids 1-424 and T344D of accession number BAA 19885.1), expressed in insect cells using baculovirus expression system and purified via glutathione sepharose affinity chromatography, was purchased from Carna Biosciences (product no 02-145) and used as enzyme. As substrate for the kinase reaction the biotinylated peptide biotin-Ahx-IKKRKLTRRKSLKG (C-terminus in amide form) was used, which can be purchased e.g. from the company Biosyntan (Berlin-Buch, Germany).
(§1) For the assay 50 nL of a 100 fold concentrated solution of the test compound in DMSO was pipetted into a black low volume 384 well microtiter plate (Greiner Bio-One, Frickenhausen, Germany), 2 μL of a solution of MKNK1 in aqueous assay buffer [50 mM HEPES pH 7.5, 5 mM magnesium chloride, 1.0 mM dithiothreitol, 0.005% (v/v) Nonidet-P40 (Sigma)] was added and the mixture was incubated for 15 min at 22° C. to allow pre-binding of the test compounds to the enzyme before the start of the kinase reaction. Then the kinase reaction was started by the addition of 3 μL of a solution of adenosine-tri-phosphate (ATP, 3.3 mM=>final conc. in the 5 μL assay volume is 2 mM) and substrate (0.1 μM=>final conc. in the 5 μL assay volume is 0.06 μM) in assay buffer and the resulting mixture was incubated for a reaction time of 30 min at 22° C. The concentration of MKNK1 was adjusted depending of the activity of the enzyme lot and was chosen appropriate to have the assay in the linear range, typical concentrations were in the range of 0.003 μg/mL. The reaction was stopped by the addition of 5 μL of a solution of TR-FRET detection reagents (5 nM streptavidine-XL665 [Cisbio Bioassays, Codolet, France] and 1 nM anti-ribosomal protein S6 (pSer236)-antibody from Invitrogen [#44921G] and 1 nM LANCE EU-W1024 labeled ProteinG [Perkin-Elmer, product no. AD0071]) in an aqueous EDTA-solution (100 mM EDTA, 0.1% (w/v) bovine serum albumin in 50 mM HEPES pH 7.5).
(§2) The resulting mixture was incubated for 1 h at 22° C. to allow the formation of complex between the phosphorylated biotinylated peptide and the detection reagents. Subsequently the amount of phosphorylated substrate was evaluated by measurement of the resonance energy transfer from the Eu-chelate to the streptavidine-XL. Therefore, the fluorescence emissions at 620 nm and 665 nm after excitation at 350 nm were measured in a TR-FRET reader, e.g. a Rubystar (BMG Labtechnologies, Offenburg, Germany) or a Viewlux (Perkin-Elmer). The ratio of the emissions at 665 nm and at […] was taken as the measure for the amount of phosphorylated substrate. The data were normalised (enzyme reaction without inhibitor=0% inhibition, all other assay components but no enzyme=100% inhibition).
Background: TR-FRET usually uses a lanthanide donor and a delayed reading to cut background.

For experiment [2], the target named is T2, human full-lengt MKNK1 (Homo sapiens, UniProt Q9BUB5, T385D).
T2 construct: purchased Carna Biosciences 02-145; host or cells: insect cells (baculovirus expression system)
T2 sequence (Q9BUB5 1-424 isoform Q9BUB5-2 T344D): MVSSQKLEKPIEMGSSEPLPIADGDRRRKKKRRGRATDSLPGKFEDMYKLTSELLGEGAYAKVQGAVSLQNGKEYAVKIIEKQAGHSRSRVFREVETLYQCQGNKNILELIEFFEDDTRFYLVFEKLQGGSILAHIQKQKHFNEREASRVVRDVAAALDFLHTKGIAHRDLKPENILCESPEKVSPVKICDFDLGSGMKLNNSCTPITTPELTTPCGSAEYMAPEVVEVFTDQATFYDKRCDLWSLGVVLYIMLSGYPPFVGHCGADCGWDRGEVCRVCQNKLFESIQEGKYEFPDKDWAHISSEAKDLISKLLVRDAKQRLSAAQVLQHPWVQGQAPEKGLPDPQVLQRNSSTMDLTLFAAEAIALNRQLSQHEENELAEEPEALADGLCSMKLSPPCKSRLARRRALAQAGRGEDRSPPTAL
Nature of the experiment: MKNK1 kinase assay (MKNK1 TR-FRET assay). Conditions: ATP final conc. 10 μM, 15 min preincubation, 45 min reaction at 22° C. Type of experiment: biochemical.
Text: MKNK1-inhibitory activity of compounds of the present invention was quantified employing the MKNK1 TR-FRET assay as described in the following paragraphs.
A recombinant fusion protein of Glutathione-S-Transferase (GST, N-terminally) and human full-lengt MKNK1 (amino acids 1-424 and T344D of accession number BAA 19885.1), expressed in insect cells using baculovirus expression system and purified via glutathione sepharose affinity chromatography, was purchased from Carna Biosciences (product no 02-145) and used as enzyme. As substrate for the kinase reaction the biotinylated peptide biotin-Ahx-IKKRKLTRRKSLKG (C-terminus in amide form) was used which can be purchased e.g. form the company Biosyntan (Berlin-Buch, Germany).
as §1, with “16.7 μM=>final” for “3.3 mM=>final”, “10 μM)” for “2 mM)”, “45” for “30”, “0.05 μg/ml.” for “0.003 μg/mL.”
as §2, with “inhibition). Usually the test compounds were tested on the same microtiterplate in 11 different concentrations in the range of 20 μM to 0.1 nM (20 μM, 5.9 μM, 1.7 μM, 0.51 μM, 0.15 μM, 44 nM, 13 nM, 3.8 nM, 1.1 nM, 0.33 nM and 0.1 nM, the dilution series prepared separately before the assay on the level of the 100 fold concentrated solutions in DMSO by serial 1:3.4 dilutions) in duplicate values for each concentration and […] were calculated by a 4 parameter fit.” for “inhibition).”

pIC50: −log10 of the molar value. Counter-ions that a name gives are not always drawn.

T1 sequence (Q9BUB5 1-424 isoform Q9BUB5-2 T344D): as above

With `COc1nccc2oc(-c3cnc4ccc(O[C@H]5CC[C@H](N)CC5)nn34)cc12` [Example 21, trans-4-{[3-(4-Methoxyfuro[3,2-c]pyridin-2-yl)imidazo[1,2-b]pyridazin-6-yl]-oxy}cyclohexanamine salt with formic acid], the pIC50 (usually the negative decadic logarithm of the IC50, by convention in mol/L) in experiment [1] was 7.51; in experiment [2], 8.00.
On the same counts, the results for `CCOc1nccc2oc(-c3cnc4ccc(O[C@H]5C[C@H](N)C5)nn34)cc12` [Example 36, trans-3-{[3-(4-Ethoxyfuro[3,2-c]pyridin-2-yl)imidazo[1,2-b]pyridazin-6-yl]oxy}-cyclobutanamine] are 8.40 and 8.40.
In the same order, the values of `CCNc1nccc2oc(-c3cnc4ccc(OC[C@H](C)N)nn34)cc12` [Example 40, 2-(6-{[(2S)-2-Aminopropyl]oxy}imidazo[1,2-b]pyridazin-3-yl)-N-ethylfuro[3,2-c]pyridin-4-amine] are 7.89 and 8.30.
On the same counts, the results for `COc1nccc2oc(-c3cnc4ccc(OC[C@@H](N)c5ccccc5)nn34)cc12` [Example 4, (1S)-2-{[3-(4-Methoxyfuro[3,2-c]pyridin-2-yl)imidazo[1,2-b]pyridazin-6-yl]oxy}-1-phenylethanamine] are 7.04 and 7.70.
Regarding `COc1nccc2oc(-c3cnc4ccc(O[C@@H]5CC[C@H](N)C5)nn34)cc12` [Example 18, (1S,3R)-3-{[3-(4-Methoxyfuro[3,2-c]pyridin-2-yl)imidazo[1,2-b]pyridazin-6-yl]-oxy}cyclopentanamine], the negative-log IC50 (pIC50) in experiment [1] is 7.37; in experiment [2], 7.77.
On the same counts, the results for `COc1nccc2oc(-c3cnc4ccc(OCC(C)CN)nn34)cc12` (stereo not shown) [Example 16, 3-{[3-(4-Methoxyfuro[3,2-c]pyridin-2-yl)imidazo[1,2-b]pyridazin-6-yl]oxy}-2-methylpropan-1-amine] are 7.72 and 8.10.
In the case of `CCOc1nccc2oc(-c3cnc4ccc(OC[C@@H](C)N)nn34)cc12` [Example 38, (2R)-1-{[3-(4-Ethoxyfuro[3,2-c]pyridin-2-yl)imidazo[1,2-b]pyridazin-6-yl]oxy}-propan-2-amine], the pIC50 in experiment [1] was 7.64; in experiment [2] it was 8.10.
In the same order, the values of `CC(C)Oc1nccc2oc(-c3cnc4ccc(O[C@H]5C[C@H](N)C5)nn34)cc12` [Example 37, trans-3-({3-[4-(Propan-2-yloxy)furo[3,2-c]pyridin-2-yl]imidazo[1,2-b]pyridazin-6-yl}oxy)cyclobutanamine] are 7.77 and 8.15.
In the same order, the values of `CC(C)[C@H](N)COc1ccc2ncc(-c3cc4cnccc4o3)n2n1` [Example 30, (2S)-1-{[3-(Furo[3,2-c]pyridin-2-yl)imidazo[1,2-b]pyridazin-6-yl]oxy}-3-methylbutan-2-amine] are 6.51 and 6.86.
On the same counts, the results for `C[C@@H](N)COc1ccc2ncc(-c3cc4ncccc4o3)n2n1` [Example 17, (2R)-{[3-(Furo[3,2-b]pyridin-2-yl)imidazo[1,2-b]pyridazin-6-yl]oxy}propan-2-amine] are 6.90 and 7.17.
`C[C@H](N)COc1ccc2ncc(-c3cc4cnccc4o3)n2n1` [Example 20, (2S)-1-{[3-(Furo[3,2-c]pyridin-2-yl)imidazo[1,2-b]pyridazin-6-yl]oxy}propan-2-amine]: the values for the pIC50 in experiment [1] and in experiment [2] were 6.88 and 7.19, respectively.
On the same counts, the results for `COc1nccc2oc(-c3cnc4ccc(OC[C@H](C)N)nn34)cc12` [Example 5, (2S)-1-{[3-(4-Methoxyfuro[3,2-c]pyridin-2-yl)imidazo[1,2-b]pyridazin-6-yl]-oxy}propan-2-amine] are 7.19 and 7.68.
In the same order, the values of `COc1nccc2oc(-c3cnc4ccc(OC[C@@H](C)N)nn34)cc12` [Example 3, (2R)-1-{[3-(4-Methoxyfuro[3,2-c]pyridin-2-yl)imidazo[1,2-b]pyridazin-6-yl]-oxy}propan-2-amine] are 7.57 and 7.96.
As to `C[C@H](N)COc1ccc2ncc(-c3cc4c(OCC5CC5)nccc4o3)n2n1` [Example 25, (2S)-1-({3-[4-(Cyclopropylmethoxy)furo[3,2-c]pyridin-2-yl]imidazo[1,2-b]-pyridazin-6-yl}oxy)propan-2-amine], the figures for the negative logarithm of the IC50 (pIC50) in experiment [1] and in experiment [2] were 7.55 and 7.80, respectively.
In the case of `C[C@H](CN)Oc1ccc2ncc(-c3cc4cnccc4o3)n2n1` [Example 8, (2R)-2-{[3-(Furo[3,2-c]pyridin-2-yl)imidazo[1,2-b]pyridazin-6-yl]oxy}propan-1-amine], the negative logarithm of the IC50 (pIC50) was 6.87 in experiment [1] and 7.55 in experiment [2].
On the same counts, the results for `COc1nccc2oc(-c3cnc4ccc(OC[C@@H](N)[C@@H](C)OCc5ccccc5)nn34)cc12` [Example 10, (2R,3R)-3-(Benzyloxy)-1-{[3-(4-methoxyfuro[3,2-c]pyridin-2-yl)imidazo[1,2-b]-pyridazin-6-yl]oxy}butan-2-amine] are 7.21 and 7.47.
In the same order, the values of `COc1nccc2oc(-c3cnc4ccc(OCC(C)(C)N)nn34)cc12` [Example 22, 1-{[3-(4-Methoxyfuro[3,2-c]pyridin-2-yl)imidazo[1,2-b]pyridazin-6-yl]oxy}-2-methylpropan-2-amine] are 7.10 and 7.85.

For the origin of these results see US9643974B2, “Amino-substituted imidazopyridazines” (Bayer Intellectual Property GmbH, priority 2011, dated 2017).
